# Test system: rat tail artery helical strip
# Details: strips contracted with arginine vasopressin, dose of 100 mg/ml
# Method: Male and female Sprague-Dawley rats were anesthetized with pentobarbital (50 mg/kg) before removal of the tail artery. Upon isolation the artery was placed in ice cold Krebs-Hensleit solution (KHS) which was oxygenated with 95% O2, 5% CO2. The vessels were cut helically and strips of approximately 1.5 cm were secured in a Sawyer-Bartleston chamber containing KHS. The development of force of the helical strips was measured with a Grass FT.03 force displacement transducer and recorded on a Grass Model 79D polygraph. Isolated tail artery helical strips were equilibrated for one hour prior to addition of any peptide. In all cases, the strips were first contracted by adding arginine vasopressin (AVP), to the bath. The peptide being studied was then added to the bath and the degree of relaxation was determined.
smiles,measurement,value
"N=C(N)NCCC[C@@H](N)C(=O)O [D Arg, D-arginine]",Tension change,0 gm

# Source: US4687840A, “Hypotensive active peptides” (Texas Tech University Health Sciences Center, priority 1986, dated 1987)
